Where two headings read alike, the source gives them in different places.
Columns and labels:
EP1 receptor = target: T1, EP1 receptor (Cavia porcellus, UniProt A0A286XHJ6); assay: EP1-activity: contraction of the longitudinal smooth muscle of the isolated guinea pig ileum; type: cell-based
T1 sequence (A0A286XHJ6 1-405): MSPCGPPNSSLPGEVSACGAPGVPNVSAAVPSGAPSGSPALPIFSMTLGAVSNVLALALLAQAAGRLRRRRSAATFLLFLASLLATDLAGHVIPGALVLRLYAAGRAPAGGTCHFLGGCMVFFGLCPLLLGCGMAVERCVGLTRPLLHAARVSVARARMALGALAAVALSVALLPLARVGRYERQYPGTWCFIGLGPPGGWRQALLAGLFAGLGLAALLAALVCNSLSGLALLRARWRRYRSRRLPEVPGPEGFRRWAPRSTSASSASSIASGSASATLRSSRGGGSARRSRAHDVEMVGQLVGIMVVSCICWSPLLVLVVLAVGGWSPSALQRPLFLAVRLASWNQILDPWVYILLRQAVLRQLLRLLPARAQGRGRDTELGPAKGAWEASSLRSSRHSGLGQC
Procedure: (§1) Activity at different prostanoid receptors was measured in vitro in isolated smooth muscle preparations. FP-activity was measured as contraction of the isolated feline iris sphincter. EP1-activity was measured as contraction of the longitudinal smooth muscle of the isolated guinea pig ileum. EP3-activity was measured as inhibition of the twitch response induced by electrical field stimulation in the isolated guinea pig was deferens and as contraction of the longitudinal smooth muscle of the isolated chick ileum. Activity was also measured as relaxation of smooth muscle of isolated rabbit jugular vein a preparation which appears to contain a unique PGF2α-sensitive receptor provisionally termed FPVASC. TP-vasoconstrictor activity was measured as contraction of rings of the isolated rat thoracic aorta. Effects on platelets from healthy human donors were measured by incubating platelet-rich plasma with the compounds described herein. Inhibition of aggregation was determined by the ability of the compounds described herein to inhibit platelet aggregation in platelet-rich plasma induced by 20 μM ADP.

EP3 receptor = target: T2, EP3 receptor (UniProt A0A286XLZ9); assay: EP3-activity: inhibition of the twitch response induced by electrical field stimulation in the isolated guinea pig vas deferens; type: cell-based; conditions: pa = printed beside some values, read-out: EC50 (nM) EP3, first value of the cell
T2 sequence (A0A286XLZ9 1-363): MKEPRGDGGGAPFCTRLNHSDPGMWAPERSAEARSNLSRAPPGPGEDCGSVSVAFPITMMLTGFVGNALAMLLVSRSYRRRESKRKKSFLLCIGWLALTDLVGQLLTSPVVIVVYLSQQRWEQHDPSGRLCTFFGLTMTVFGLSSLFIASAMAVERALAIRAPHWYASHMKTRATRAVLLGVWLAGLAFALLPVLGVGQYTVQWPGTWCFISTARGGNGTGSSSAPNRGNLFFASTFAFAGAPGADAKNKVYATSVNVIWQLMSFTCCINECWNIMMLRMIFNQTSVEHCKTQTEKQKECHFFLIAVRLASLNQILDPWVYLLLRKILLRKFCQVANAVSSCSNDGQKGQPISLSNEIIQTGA
Procedure: as §1

[1] = test system: PGF2α-sensitive receptor provisionally termed FPVASC; assay: Relaxation of smooth muscle of isolated rabbit jugular vein; type: cell-based
Procedure: as §1

TP receptor = target: T3, TP receptor (Rattus norvegicus, UniProt P34978); assay: TP-vasoconstrictor activity: contraction of rings of the isolated rat thoracic aorta; type: cell-based
T3 construct: rings of the isolated rat thoracic aorta; from tissue; host or cells: isolated rat thoracic aorta rings
T3 sequence (P34978 1-341): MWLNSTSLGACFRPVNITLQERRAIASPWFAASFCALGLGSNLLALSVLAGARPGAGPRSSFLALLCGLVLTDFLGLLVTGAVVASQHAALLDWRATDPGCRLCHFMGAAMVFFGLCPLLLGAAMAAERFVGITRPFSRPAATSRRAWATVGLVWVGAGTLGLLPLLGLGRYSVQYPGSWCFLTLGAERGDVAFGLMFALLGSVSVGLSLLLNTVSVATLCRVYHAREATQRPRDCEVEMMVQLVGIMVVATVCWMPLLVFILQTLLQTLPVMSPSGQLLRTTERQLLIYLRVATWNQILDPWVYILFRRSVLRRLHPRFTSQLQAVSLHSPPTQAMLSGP
Procedure: as §1

Dog eye (hyperemia) = assay: Ocular surface hyperemia in dogs after topical dosing; type: in vivo; design: scale not given here
Dog eye (miosis) = assay: Miosis in dogs after topical dosing; type: in vivo
[2] = isolated rabbit jugular vein relaxation, read-out: EC50 (nM) FPVASC
[3] = isolated rat thoracic aorta contraction, read-out: EC50 (nM) TP
[4] = read-out: rbFPv/EP4, Table of compounds 17a-25, unit inferred
[5] = Table of compounds 17a-25, unit inferred, read-out: rtTPva

EC50 (EP1 receptor) [nM] | EC50 (EP3 receptor) [nM] | EC50 [1, 2] [nM] | EC50 (TP receptor; [3]) [nM] | Compound | EC50 [1, 4] [nM] | other results
> 10000 | > 10000 | 3.6 | > 10000 | NC(=O)CCC/C=C\C[C@@H]1[C@@H](/C=C/[C@@H](O)CCc2ccsc2)[C@H](O)C[C@@H]1O | – | –
– | – | 58 | – | O=C(O)CCC/C=C\C[C@@H]1[C@@H](/C=C/[C@H](O)CCc2ccsc2)[C@H](O)C[C@@H]1O | – | –
– | – | – | – | NC(=O)CCC/C=C\C[C@@H]1[C@@H](/C=C/[C@H](O)CCc2ccsc2)[C@H](O)C[C@@H]1O | – | Hyp (hyperemia score) (Dog eye (hyperemia); 0.1%): 0.72; Miosis (Dog eye (miosis); 0.1%): pin
> 10000 | 189 | 2.1 | ~10000 | CO[C@H](/C=C/[C@@H]1[C@@H](C/C=C\CCCC(=O)O)[C@@H](O)C[C@H]1O)CCc1ccsc1 | – | Hyp (hyperemia score) (Dog eye (hyperemia); 0.1%): 0.83; Miosis (Dog eye (miosis); 0.1%): pinpt
> 10000 | 105 | 545 | 4740 | O=C(O)CCC/C=C\C[C@@H]1[C@@H](CC[C@@H](O)CCc2ccsc2)[C@H](O)C[C@@H]1O | – | –
> 10000 | 83 | – | 5400 | O=C(O)CCC/C=C\C[C@@H]1[C@@H](/C=C/[C@@H](O)CCc2ccoc2)[C@H](O)C[C@@H]1O | – | Hyp (hyperemia score) (Dog eye (hyperemia); 0.01%): 0.83; Hyp (hyperemia score) (Dog eye (hyperemia); 0.1%): 0.38; Miosis (Dog eye (miosis); 0.01%): mild; Miosis (Dog eye (miosis); 0.1%): pinpoint
– | – | > 5880 | – | O=C(O)CCC/C=C\C[C@@H]1[C@@H](CCC(O)CCc2ccoc2)[C@H](O)C[C@@H]1O (stereo partly shown) | – | –
> 10000 | 44 | > 7690 | ~10000 | O=C(O)CCC/C=C\C[C@@H]1[C@@H](/C=C/[C@@H](O)CCc2ccco2)[C@H](O)C[C@@H]1O | – | Hyp (hyperemia score) (Dog eye (hyperemia); 0.01%): 0.54; Hyp (hyperemia score) (Dog eye (hyperemia); 0.1%): 0.67; Miosis (Dog eye (miosis); 0.01%): mild; Miosis (Dog eye (miosis); 0.1%): pinpoint
> 10000 | 355 | > 833 | 3980 | Cc1sccc1CC[C@H](O)/C=C/[C@@H]1[C@@H](C/C=C\CCCC(=O)O)[C@@H](O)C[C@H]1O | – | –
– | 9000 | > 69000 | – | O=C(O)CCC/C=C\C[C@@H]1[C@@H](/C=C/[C@@H](O)CCc2cc3ccccc3o2)[C@H](O)C[C@@H]1O | – | Hyp (hyperemia score) (Dog eye (hyperemia); 0.01%): 0.17; Hyp (hyperemia score) (Dog eye (hyperemia); 0.1%): 0.13; Miosis (Dog eye (miosis); 0.01%): 0; Miosis (Dog eye (miosis); 0.1%): 0
– | ~10000 | 2660 | – | O=C(O)CCC/C=C\C[C@@H]1[C@@H](/C=C/[C@@H](O)CCc2cc3ccccc3s2)[C@H](O)C[C@@H]1O | – | –
> 10000 | 1000 | 47 | 2450 | O=C(O)CCC/C=C\C[C@@H]1[C@@H](/C=C/[C@@H](O)CCc2ccsc2Cl)[C@H](O)C[C@@H]1O | – | Hyp (hyperemia score) (Dog eye (hyperemia); 0.1%): 1.13; Miosis (Dog eye (miosis); 0.1%): pinpoint
> 10000 | 341 | > 7690 | > 10000 | Cc1ccc(CC[C@H](O)/C=C/[C@@H]2[C@@H](C/C=C\CCCC(=O)O)[C@@H](O)C[C@H]2O)s1 | – | –
> 10000 | 50 | 16 | 371 | O=C(O)CCC/C=C\C[C@@H]1[C@@H](/C=C/[C@@H](O)CCc2cc(Br)cs2)[C@H](O)C[C@@H]1O | – | –
– | – | 1000 | – | O=C(O)CCC/C=C\C[C@@H]1[C@@H](/C=C/[C@@H](O)CCc2nccs2)[C@H](O)C[C@@H]1O | – | Hyp (hyperemia score) (Dog eye (hyperemia); 0.1%): 0.6; Miosis (Dog eye (miosis); 0.1%): pinpoint
– | – | 28300 | – | O=C(O)CCC/C=C\C[C@@H]1[C@@H](/C=C/[C@H](O)CCc2nccs2)[C@H](O)C[C@@H]1O | – | –
> 10000 | – | 122 | 3530 | O=C(O)CCC/C=C\C[C@@H]1[C@@H](/C=C/[C@@H](O)CCc2sccc2Cl)[C@H](O)C[C@@H]1O | – | –
– | – | 21 | > 10000 | CCc1ccc(CC[C@H](O)/C=C/[C@@H]2[C@@H](C/C=C\CCCC(=O)O)[C@@H](O)C[C@H]2O)s1 | – | –
– | – | 82 | > 10000 | NC(=O)CCC/C=C\C[C@@H]1[C@@H](/C=C/[C@@H](O)CCc2cc(Cl)sc2Cl)[C@H](O)C[C@@H]1O | – | Hyp (hyperemia score) (Dog eye (hyperemia); 0.1%): 1.2; Miosis (Dog eye (miosis); 0.1%): pinpoint
– | – | – | – | N#Cc1ccc(CC[C@H](O)/C=C/[C@@H]2[C@@H](C/C=C\CCCC(=O)O)[C@@H](O)C[C@H]2O)s1 [Compound 17a, 7-[3α,5α-Dihydroxy-2-(3α-hydroxy-5-(2-(5-cyano)thienyl)-1E-pentenyl)cyclopentyl]-5Z-heptenoic acid] | 112 | EC50 (TP receptor; [5]): ~10000 nM
– | – | – | – | N#Cc1ccc(CC[C@H](O)/C=C/[C@@H]2[C@@H](C/C=C\CCCC(N)=O)[C@@H](O)C[C@H]2O)s1 [Compound 17b, 7-[3α,5α-Dihydroxy-2-(3α-hydroxy-5-(2-(5-cyano)thienyl)-1E-pentenyl)cyclopentyl]-5Z-heptenamide] | > 256000 | –
– | – | – | – | CC(C)OC(=O)CCC/C=C\C[C@@H]1[C@@H](/C=C/[C@@H](O)CCc2ccc(C#N)s2)[C@H](O)C[C@@H]1O [Compound 17c, Isopropyl-7-[3α,5α-Dihydroxy-2-(3α-hydroxy-5-(2-(5-cyano)thienyl)-1-E-pentenyl)cyclopentyl]-5Z-heptenoate] | 6510 | –
– | – | – | – | O=C(O)CCC/C=C\C[C@@H]1[C@@H](/C=C/[C@@H](O)CCc2sccc2F)[C@H](O)C[C@@H]1O [Compound 18b] | 2.9 | EC50 (TP receptor; [5]): 3500 nM
– | – | – | – | CS(=O)(=O)NC(=O)CCC/C=C\C[C@@H]1[C@@H](/C=C/[C@@H](O)CCc2ccc(Cl)s2)[C@H](O)C[C@@H]1O [Compound 20a, N-Methylsulfonyl-7-[3α,5α-Dihydroxy-2-(3α-hydroxy-5-(2-(5-chloro)thienyl)-1E-pentenyl)cyclopentyl]-5Z-heptenamide] | 6070 | –
– | – | – | – | CCS(=O)(=O)NC(=O)CCC/C=C\C[C@@H]1[C@@H](/C=C/[C@@H](O)CCc2ccc(Cl)s2)[C@H](O)C[C@@H]1O [Compound 20b, N-Ethylsulfonyl-7-[3α,5α-Dihydroxy-2-(3α-hydroxy-5-(2-(5-chloro)thienyl)-1E-pentenyl)cyclopentyl]-5Z-heptenamide] | 1040 | –
– | – | – | – | O=C(CCC/C=C\C[C@@H]1[C@@H](/C=C/[C@@H](O)CCc2ccc(Cl)s2)[C@H](O)C[C@@H]1O)NS(=O)(=O)C(F)(F)F [Compound 20c, N-Trifluoromethylsulfonyl-7-[3α,5α-Dihydroxy-2-(3α-hydroxy-5-(2-(5-chloro)thienyl)-1E-pentenyl)cyclopentyl]-5Z-heptenamide] | 221 | EC50 (TP receptor; [5]): > 10000 nM
– | – | – | – | CS(=O)(=O)NC(=O)CCC/C=C\C[C@@H]1[C@@H](/C=C/[C@@H](O)CCc2ccc(I)s2)[C@H](O)C[C@@H]1O [Compound 21a, N-Methylsulfonyl-7-[3α,5α-Dihydroxy-2-(3α-hydroxy-5-(2-(5-iodo)thienyl)-1E-pentenyl)cyclopentyl]-5Z-heptenamide] | 1820 | –
– | – | – | – | CCS(=O)(=O)NC(=O)CCC/C=C\C[C@@H]1[C@@H](/C=C/[C@@H](O)CCc2ccc(I)s2)[C@H](O)C[C@@H]1O [Compound 21b, N-Ethylsulfonyl-7-[3α,5α-Dihydroxy-2-(3α-hydroxy-5-(2-(5-iodo)thienyl)-1E-pentenyl)cyclopentyl]-5Z-heptenamide] | 189 | –
– | – | – | – | O=C(CCC/C=C\C[C@@H]1[C@@H](/C=C/[C@@H](O)CCc2ccc(I)s2)[C@H](O)C[C@@H]1O)NS(=O)(=O)C(F)(F)F [Compound 21c, N-Trifluoromethylsulfonyl-7-[3α,5α-Dihydroxy-2-(3α-hydroxy-5-(2-(5-iodo)thienyl)-1E-pentenyl)cyclopentyl]-5Z-heptenamide] | 36 | –

Source: patent publication US6602900B2, “Cyclopentane heptan(ENE)oic acid, 2-heteroarylalkenyl derivatives as therapeutic agents” (Allergan, Inc., priority 1992, dated 2003)
